Results reported in US20240124434A1, “ATF6 INHIBITORS AND USES THEREOF” (Altos Labs, Inc., priority 2018, published 2024).
In brackets after ≈: the same amount, converted by molar mass. Read-outs that look alike come from different tables or passages of the source.

What was measured:
[1] = mouse, in vivo, po, 10 mg/kg
[2] = in vivo; settings: Balb/c, mouse, po, 10 mg/kg
[3] = tested on: ATF6; test: ERSE ATF6-luciferase reporter assay (thapsigargin-induced ER stress); format: cell-based, human
[4] = target: CYP2C19 (Homo sapiens (Human), UniProt P33261); test: CYP inhibition in human liver microsomes
[5] = target: CYP3A4 (Homo sapiens (Human), UniProt P08684); test: CYP inhibition in human liver microsomes
In short: (§1)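 Pooled human liver microsomes with isoform probe substrates: 2 μM midazolam (CYP3A4, 10 min), 50 μM phenacetin (CYP1A2), 5 μM diclofenac (CYP2C9), both 20 min; CYP2C8 run 20 min, desethylamodiaquine formation. Metabolites (1-hydroxymidazolam, acetaminophen, 4-hydroxydiclofenac) quantified by LC/MS/MS after acetonitrile stop.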

[6] = target: CYP1A2 (Homo sapiens (Human), UniProt P05177); test: CYP inhibition in human liver microsomes
In short: as §1

[7] = target: CYP2C9 (Homo sapiens (Human), UniProt P11712); test: CYP inhibition in human liver microsomes
In short: as §1

[8] = target: CYP2D6 (Homo sapiens (Human), UniProt P10635); test: CYP inhibition in human liver microsomes
[9] = target: CYP2B6 (Homo sapiens (Human), UniProt P20813); test: CYP inhibition in human liver microsomes
[10] = Kinetic solubility (nephelometry); format: physicochemical; settings: PBS pH 7.4, 1% DMSO, 1 hour at 37° C., light scattering at 625 nm
Procedure: Concentration (μM) was then calculated by segmental regression. Amiodarone (#A8423 Aldrich) was used as positive control.

[11] = In vitro microsomal stability, mouse liver microsomes; format: in vitro ADME; settings: for Rem. @ mLM (%): remaining fraction after 30 min, 1 mM NADPH
In short: (§2)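 1 μM compound was incubated at 37 °C with 0.5 mg/mL human, mouse or rat liver microsomes and 1 mM NADPH in 100 mM phosphate buffer pH 7.4. Reactions were stopped at 0, 5, 15 and 30 min with cold acetonitrile containing propranolol internal standard.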

[12] = Oral bioavailability and PK parameters in Balb/c mice; settings: single oral dose 10 mg/kg; for Vz: volume of distribution
[13] = In vitro microsomal stability, human liver microsomes; format: in vitro ADME; settings: for Rem. @ hLM (%): remaining fraction after 30 min, 1 mM NADPH
In short: as §2

[14] = In vitro microsomal stability, rat liver microsomes; format: in vitro ADME; settings: for Rem. @ rLM (%): remaining fraction after 30 min, 1 mM NADPH
In short: as §2

[15] = 1 μM compound, 0.5 mg/mL mouse liver microsomes
[16] = 1 μM compound, 0.5 mg/mL human liver microsomes
[17] = 1 μM compound, 0.5 mg/mL rat liver microsomes

CYP2D6, sequence (P10635 whole entry): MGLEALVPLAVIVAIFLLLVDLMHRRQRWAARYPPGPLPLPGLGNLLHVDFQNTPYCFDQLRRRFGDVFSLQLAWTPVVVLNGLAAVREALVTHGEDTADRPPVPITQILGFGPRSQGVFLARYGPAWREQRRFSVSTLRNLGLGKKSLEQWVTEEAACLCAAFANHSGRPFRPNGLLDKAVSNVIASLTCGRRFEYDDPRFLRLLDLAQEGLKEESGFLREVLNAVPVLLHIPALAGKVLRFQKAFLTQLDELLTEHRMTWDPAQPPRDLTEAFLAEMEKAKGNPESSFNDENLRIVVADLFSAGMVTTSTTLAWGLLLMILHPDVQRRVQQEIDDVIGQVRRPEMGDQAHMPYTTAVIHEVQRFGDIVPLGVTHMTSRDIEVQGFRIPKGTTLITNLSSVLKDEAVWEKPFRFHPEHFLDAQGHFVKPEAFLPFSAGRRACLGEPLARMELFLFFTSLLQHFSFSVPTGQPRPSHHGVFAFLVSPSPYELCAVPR
CYP1A2, sequence (P05177 whole entry): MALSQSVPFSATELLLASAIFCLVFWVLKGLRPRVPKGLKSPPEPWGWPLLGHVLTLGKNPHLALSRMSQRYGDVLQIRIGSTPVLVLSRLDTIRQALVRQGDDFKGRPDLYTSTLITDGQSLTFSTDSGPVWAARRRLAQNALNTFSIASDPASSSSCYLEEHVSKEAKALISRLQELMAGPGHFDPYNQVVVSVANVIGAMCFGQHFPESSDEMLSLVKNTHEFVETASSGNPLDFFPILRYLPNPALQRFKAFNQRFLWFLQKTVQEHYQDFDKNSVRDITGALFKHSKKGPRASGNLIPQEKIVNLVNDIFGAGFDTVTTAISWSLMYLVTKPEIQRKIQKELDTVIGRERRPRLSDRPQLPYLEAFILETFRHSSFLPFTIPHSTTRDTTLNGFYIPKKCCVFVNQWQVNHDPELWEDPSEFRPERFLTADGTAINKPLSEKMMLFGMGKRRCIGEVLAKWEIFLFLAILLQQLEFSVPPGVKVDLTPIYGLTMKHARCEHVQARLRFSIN
CYP3A4, sequence (P08684 whole entry, canonical isoform): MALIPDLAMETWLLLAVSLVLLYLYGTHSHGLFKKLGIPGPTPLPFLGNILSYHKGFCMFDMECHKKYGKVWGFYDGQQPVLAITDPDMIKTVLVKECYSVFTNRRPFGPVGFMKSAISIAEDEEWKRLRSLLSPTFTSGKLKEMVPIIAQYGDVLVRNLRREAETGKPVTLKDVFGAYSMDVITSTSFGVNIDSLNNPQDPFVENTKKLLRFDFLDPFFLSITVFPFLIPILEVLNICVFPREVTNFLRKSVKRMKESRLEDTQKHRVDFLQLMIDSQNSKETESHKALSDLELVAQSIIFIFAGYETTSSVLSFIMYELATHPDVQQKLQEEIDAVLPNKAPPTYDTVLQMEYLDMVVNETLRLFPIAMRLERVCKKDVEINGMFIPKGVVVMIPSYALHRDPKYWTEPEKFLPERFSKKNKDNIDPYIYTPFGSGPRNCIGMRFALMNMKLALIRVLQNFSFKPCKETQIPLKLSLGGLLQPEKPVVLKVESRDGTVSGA
CYP2C9, sequence (P11712 whole entry): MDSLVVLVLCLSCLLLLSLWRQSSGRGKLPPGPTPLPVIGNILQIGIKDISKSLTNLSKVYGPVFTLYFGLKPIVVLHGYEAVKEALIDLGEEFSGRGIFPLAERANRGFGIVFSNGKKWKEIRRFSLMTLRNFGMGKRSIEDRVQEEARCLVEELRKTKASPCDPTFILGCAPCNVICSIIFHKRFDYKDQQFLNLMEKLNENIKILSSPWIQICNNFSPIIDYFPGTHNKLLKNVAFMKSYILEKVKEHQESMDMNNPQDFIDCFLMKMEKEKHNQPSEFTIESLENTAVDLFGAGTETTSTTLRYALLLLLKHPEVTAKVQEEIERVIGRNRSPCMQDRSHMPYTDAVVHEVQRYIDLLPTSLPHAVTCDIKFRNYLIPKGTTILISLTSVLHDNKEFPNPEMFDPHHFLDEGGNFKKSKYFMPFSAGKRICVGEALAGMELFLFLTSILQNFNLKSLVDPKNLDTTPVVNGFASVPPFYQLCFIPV
CYP2B6, sequence (P20813 whole entry): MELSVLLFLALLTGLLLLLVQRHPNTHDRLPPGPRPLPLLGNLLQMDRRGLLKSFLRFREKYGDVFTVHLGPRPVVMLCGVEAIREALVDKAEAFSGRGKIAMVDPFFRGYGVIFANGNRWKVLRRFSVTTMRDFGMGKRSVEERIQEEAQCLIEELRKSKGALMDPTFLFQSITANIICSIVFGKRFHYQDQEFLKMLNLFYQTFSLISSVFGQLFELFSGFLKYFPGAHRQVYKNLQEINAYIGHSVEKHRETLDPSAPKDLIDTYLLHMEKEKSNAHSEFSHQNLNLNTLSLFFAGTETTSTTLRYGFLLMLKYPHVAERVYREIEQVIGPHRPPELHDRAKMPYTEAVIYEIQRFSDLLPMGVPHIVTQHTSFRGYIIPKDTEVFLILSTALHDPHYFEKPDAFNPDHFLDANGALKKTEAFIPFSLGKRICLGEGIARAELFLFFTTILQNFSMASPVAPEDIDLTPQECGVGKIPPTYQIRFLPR
CYP2C19, sequence (P33261 whole entry): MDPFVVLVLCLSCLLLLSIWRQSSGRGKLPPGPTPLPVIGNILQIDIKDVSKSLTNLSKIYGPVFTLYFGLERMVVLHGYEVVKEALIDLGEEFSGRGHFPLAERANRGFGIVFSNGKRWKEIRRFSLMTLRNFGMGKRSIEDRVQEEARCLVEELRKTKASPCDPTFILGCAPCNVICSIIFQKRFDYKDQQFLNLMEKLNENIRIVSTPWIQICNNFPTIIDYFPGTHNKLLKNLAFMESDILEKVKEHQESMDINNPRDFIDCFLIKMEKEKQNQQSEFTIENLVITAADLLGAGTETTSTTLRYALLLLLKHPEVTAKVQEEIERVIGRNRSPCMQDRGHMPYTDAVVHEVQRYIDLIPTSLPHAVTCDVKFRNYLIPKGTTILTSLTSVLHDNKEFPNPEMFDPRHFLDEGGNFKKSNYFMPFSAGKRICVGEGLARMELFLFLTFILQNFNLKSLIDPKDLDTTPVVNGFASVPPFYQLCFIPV

CC(c1ccc(C(F)(F)F)cc1C(F)(F)F)n1cc(NC(=O)c2cc(-c3ccccn3)on2)cn1 (single isomer, unassigned) [“Enantiomer A” of Example S5, N-(1-(1-(2,4-bis(trifluoromethyl)phenyl)ethyl)-1H-pyrazol-4-yl)-5-(pyridin-2-yl)isoxazole-3-carboxamide]
AUCExtr [%] ([1]; Balb/c): 43% | F [%] ([1]; Balb/c): 66.3% | Last time point for AUClast [1]: 8 h | AUC(0-inf) [2]: 32400 ng·h/mL | AUC(0-t) [2]: 18500 ng·h/mL | Cmax [2]: 4590 ng/mL | Tmax [2]: 1 h | half-life [2]: 6.88 h | IC50 [3]: < 1 µM | Inh. ATF6-Luc @ 1 μM [%] ([3]; 8 h, 1 µM): +++ (+++ refers to >50% inhibition at 1 μM test compound) | IC50 [4]: 2.31 µM | IC50 [5]: > 50 µM | IC50 [6]: > 50 µM | IC50 [7]: 3.07 µM | IC50 [8]: 2.3 µM | IC50 [9]: 2.49 µM | solubility kinetic at 1 h ([10]; aqueous buffer, kinetic from dmso stock): 4.68 µM (≈ 2.32 µg/mL) | half-life at 1 μM ([11]; mouse, mouse liver microsomes, pH 7.4, read-out: T1/2 @ mLM): 0.582 h | microsomal CLint at 1 μM ([11]; pH 7.4, intrinsic clearance, mouse liver microsomes, read-out: Clint @ mLM): 39.7 µL/min/mg | Rem. @ mLM (%) [11, 15]: 53.8% | Vz [12]: 3.07 L/kg | half-life at 1 μM ([13]; human, human liver microsomes, pH 7.4, read-out: T1/2 @ hLM): 1.66 h | microsomal CLint at 1 μM ([13]; pH 7.4, intrinsic clearance, human liver microsomes, read-out: Clint @ hLM): 13.9 µL/min/mg | Rem. @ hLM (%) [13, 16]: 81.9% | microsomal CLint at 1 μM ([14]; pH 7.4, intrinsic clearance, rat liver microsomes, read-out: Clint @ rLM): 11.5 µL/min/mg | half-life at 1 μM ([14]; rat, rat liver microsomes, pH 7.4, read-out: T1/2 @ rLM): 2.02 h | Rem. @ rLM (%) [14, 17]: 80%

O=C(Nc1cnn(Cc2ccc(C(F)(F)F)cc2C(F)(F)F)c1)c1cc(-c2ccco2)on1 [Ceapin-A7, reference compound]
Inh. ATF6-Luc @ 1 μM [%] ([3]; 1 μM test compound, thapsigargin-induced ER stress, U2-OS ATF6 luc reporter cells, 8 hr): +++ (+++ refers to >50% inhibition at 1 μM test compound) | IC50 ([3]; dose-response 30 μM to 1 nM, thapsigargin-induced ER stress, U2-OS ATF6 luc reporter cells, read-out: IC50 ATF6-Luc reporter): < 1 µM | IC50 ([5]; read-out: CYP-3A4, human liver microsomes, probe substrate midazolam): > 50 µM | IC50 ([6]; microsomes): > 50 µM | IC50 ([7]; microsomes): > 45.3 µM | IC50 ([8]; microsomes): > 50 µM | IC50 ([9]; microsomes): 7.48 µM | solubility kinetic at 1 h [10]: 27.7 µM (≈ 13 µg/mL) | T1/2 @ mLM ([11]; half-life, 1 μM compound, 0.5 mg/mL mouse liver microsomes): 9.84 min | Clint @ mLM ([11]; intrinsic clearance, mouse liver microsomes): 141 µL/min/mg | Rem. @ mLM (%) [11, 15]: 12% | F [%] ([12]; Bioavailability): 1.04% | Last time point for AUClast [12]: 6 h | CL ([12]; clearance): 231 L/h/kg | t1/2 ([12]; half-life): 2.49 h | AUCinf ([12]; plasma): 43.3 ng·h/mL | AUClast ([12]; plasma): 39.1 ng·h/mL | Cmax ([12]; plasma): 68.7 ng/mL | Tmax ([12]; plasma): 0.25 h | AUCExtr [%] ([12]; plasma, extrapolated AUC): 9.56% | Vz [12]: 831 L/kg | T1/2 @ hLM ([13]; half-life, 1 μM compound, 0.5 mg/mL human liver microsomes): 0.36 h | Clint @ hLM ([13]; intrinsic clearance, human liver microsomes): 64.2 µL/min/mg | Rem. @ hLM (%) [13, 16]: 35.4% | T1/2 @ rLM ([14]; half-life, 1 μM compound, 0.5 mg/mL rat liver microsomes): 0.19 h | Clint @ rLM ([14]; intrinsic clearance, rat liver microsomes): 121 µL/min/mg | Rem. @ rLM (%) [14, 17]: 14.5%
